How the values were obtained:
THP-1 cells = assay: THP-1 cells: morphology, 3H-thymidine uptake, metalloproteinase expression; assay type: cell-based, human
[1] = system: ischemic wound on the back region of rats; assay: Ischemic H-shaped double flap wound model; assay type: in vivo, rat
Description: The effect of rhRLX on normal and ischemic wound healing in two rat models of dermal wound healing was evaluated. RhRLX in vehicle, or vehicle alone, was delivered by subcutaneous infusion to Sprague-Dawley rats using an implanted ALZET7 osmotic pump (Alza Corp., Mountain View, Calif.).
In the second model, a standardized ischemic, H-shaped, double flap wound was made on the back region. The area of surface necrosis was measured on day 14 and day 21.
In the third animal model, a standard ischemic wound (H-shaped, 8 cm long and 2 cm wide) was created on the back region of rats. Perforating branches of the central vein were cut to ensure that the wound was ischemic. The resulting wound is then ischemic, but not completely necrotic. On day 14 and day 21, the surface necrosis was measured. RhRlx treatment (0.2 mg/kg via minipump) reduced the surface necrotic area in the flap region, compared to vehicle treatment (at day 14: vehicle 195 mm^2, rhRlx 123 mm^2; at day 21 vehicle 180 mm^2, rhRlx 103 mm^2).

[2] = system: rat VEGF164, VEGF120 and bFGF mRNA in peri-infarct area of rat hearts; assay: Rat myocardial infarct (LCAL) model: quantitative RT-PCR of VEGF and bFGF; assay type: in vivo
Description: Female Sprague Dawley rats, approximately 12-weeks of age were used. Rats were anesthetized by intraperitoneal (i.p.) injection of up to 1 ml/kg ketamine/medetomidine (6:4). Following exteriorization of the heart, the left coronary artery was ligated near its origin with a silk suture. In sham surgery control animals, the suture was placed superficially into the muscle adjacent to the coronary artery. Post-closure EKG's were monitored for S-T segment elevation in LCAL animals to confirm the outcome of ligation. Immediately following cardiac surgery, a primed mini-osmotic pump containing relaxin or vehicle (20 mM acetate, pH 5.0) was aseptically implanted into a subcutaneous (s.c.) pocket on the dorsal interscapular region. Vehicle or relaxin (0.1 mg/kg/day) was delivered as a continuous s.c. infusion for 7 or 21 days to either sham or LCAL animals. Animals were terminated on day 7 or 21, and the peri-infarct regions anterior to the scar in the left ventricle, or equivalent sites on sham surgery animals were harvested.
The left coronary artery ligation (LCAL) model of myocardial ischemia in the rat (Selye et al. (1960) Angiology 11:398-407) caused profound, acute damage, involving up to 50% of the left ventricular free wall. Following systemic relaxin treatment, using rhRLX, tissue RNA was examined at 7 and 21 days post-infarction for persistent changes in VEGF and bFGF. Cells in the immediate margins surrounding the infarct were sampled to assess angiogenic cytokine expression, using quantitative RT-PCR analysis. Oligonucleotide primers and TaqMan probes, shown in Table 8, were purchased from BioSource International Inc.(Camarillo, Calif.), or PE Applied Biosystems for use with the ABI Prism^7 7700 Sequence Detection System (quantitative PCR) (PE Applied Biosystems).
Oligonucleotides were designed to rat or human bFGF, human VEGF165 amino acid or 121 amino acid isoforms, and their respective rat homologues (VEGF164 and VEGF120), and human HGF (for use with the PE Applied Biosystems “GeneAmp PCR System 9600”). Rat and human GAPDH primers and probes were purchased from BioSource International Inc. and PE Applied Biosystems, respectively. Tissue samples and monolayer cells were suspended in RNA STAT-60 (Tel-Test, Inc., Friendswood, Tex.) and processed following vendor instructions. Reverse transcription-polymerase chain reaction (RT-PCR) was performed using either rat or human total RNA as template. 150 ng of total RNA was used for the analysis of VEGF, bFGF and HGF mRNA expression; 10 ng of total RNA was used for GAPDH mRNA expression. Reverse transcription-polymerase chain reaction (RT-PCR) reagents were purchased from PE Biosystems (Foster City, Calif.).
RNA was extracted from peri-infarct regions of rat hearts following LCAL or an analogous area of sham hearts. […]

conscious rats = assay: Acute infusion of L-NAME during chronic infusion of purified porcine RLX; assay type: in vivo, rat; conditions: RLX 4 μg/hour s.c. day 5
Description: At least 7 days after the implantation of vascular and bladder catheters, osmotic minipumps containing either porcine RLX (4 μg/hour) or vehicle (Ringer's solution) were implanted in intact, female rats (n=7 and 6 rats, respectively). Renal function and MAP were measured on day 5 of relaxin infusion (three 30-minute urine and midpoint blood collections). Next, an infusion of L-NAME (2 μg/minute, a substrate competitive inhibitor of NO synthase) was administered intravenously (i.v.) by infusion pump (Model 200, KD Scientific, Boston, Mass.). Four 1-hour urine collections with midpoint blood samples were collected for the assessment of GFR, ERPF, and ERVR during the L-NAME administration. Identical procedures were performed on additional animals chronically administered porcine RLX (n=5) or vehicle (n=5), except that ANG II (3 ng/minute) was infused rather than L-NAME. Finally, another four, age-matched control rats were administered Ringer's solution instead of either L-NAME or ANG II on day 5 of porcine RLX infusion.
MAP, GFR, ERPF, and ERVR were measured at time zero (baseline), and at 60, 120, 180, and 240 minutes after administering L-NAME and either RLX or vehicle alone. Values represent the mean±SEM. L-NAME (Nω-nitro-L-arginine methyl ester) was infused at 2 μg/minute intravenously, and relaxin was administered at 4 μg/hour by osmotic minipump subcutaneously. There were 7 and 6 rats, respectively, in the RLX and vehicle groups. An asterisk denotes p<0.05; the symbol H denotes p<0.05 for RLX vs. vehicle.

[3] = L-NAME 2 μg/minute i.v., 60 min
[4] = L-NAME 2 μg/minute i.v., 120 min
[5] = L-NAME 2 μg/minute i.v., 180 min
[6] = L-NAME 2 μg/minute i.v., 240 min

## rhRLX: recombinant human relaxin, identical in amino acid sequence to the product of the human H2 gene; A chain of 24, B chain of 29 amino acids
THP-1 cells
  morphological changes, such as adherence to plastic or aggregation: no observable morphological changes
[1]; 0.2 mg/kg via minipump, day 14
  surface necrotic area in the flap region: 123 mm^2
[1]; 0.2 mg/kg via minipump, day 21
  surface necrotic area in the flap region: 103 mm^2
[1]; Example 4, day not stated
  surface necrotic area in the flap region: 123 mm^2
[1]; immunohistochemical staining, systemic treatment
  expression of NO synthase on vascular endothelium: enhances
[2]; 0.1 mg/kg/day s.c., both 7 and 21 days, vs vehicle-treated infarcted hearts
  increase in peri-infarct bFGF expression (mRNA): 2 fold
[2]; 0.1 mg/kg/day, day 7
  relative expression of either VEGF isoform, peri-infarct regions: no changes
[2]; 0.1 mg/kg/day, day 21
  relative levels of VEGF164 and VEGF120 transcripts: trend towards an increase
[2]; sham surgery animals
  VEGF or bFGF mRNA expression: no effect

## Porcine RLX: lyophilized, purified porcine relaxin (Sherwood and O'Byrne 1974), dissolved in Ringer's solution
Conscious rats; Baseline before L-NAME
  ERPF: 10245
  ERVR: 6.96
  GFR: 3050
  MAP (mean arterial pressure): 120
Conscious rats; [3]
  ERPF: 7520
  ERVR: 11.00
  GFR: 2776
  MAP (mean arterial pressure): 135
Conscious rats; [4]
  ERPF: 7030
  ERVR: 11.87
  GFR: 2653
  MAP (mean arterial pressure): 136
Conscious rats; [5]
  ERPF: 6530
  ERVR: 12.92
  GFR: 2498
  MAP (mean arterial pressure): 136
Conscious rats; [6]
  ERPF: 5973
  ERVR: 14.13
  GFR: 2392
  MAP (mean arterial pressure): 139
